Laboratory results taken from patent publication US20130337020A1, “Pharmaceutical Compositions” (Alpharma Pharmaceuticals LLC, priority 2006, published 2013).

Tested on: opioid receptors
Details: cited from earlier work

Row | Compound | antagonist potency relative to naltrexone [%]
1 | Oc1ccc2c3c1O[C@H]1[C@H](O)CC[C@@]4(O)[C@@H](C2)N(CC2CC2)CC[C@]314 [6-β-naltrexol] | 2 to 4

Tested on: not given
Details: in comparison to a 15 mg dose of hydrocodone

Row | Compound | Equianalgesic Doses of Opioids, Calculated Dose [mg]
2 | COc1ccc2c3c1O[C@H]1[C@@H](O)C=C[C@H]4[C@@H](C2)N(C)CC[C@@]341 [Codeine] | 90.0
3 | COc1ccc2c3c1OC1C(=O)CC[C@H]4[C@@H](C2)N(C)CC[C@]314 (stereo partly shown) [Hydrocodone, 4,5-epoxy-3-methoxy-17-methylmorphinan-6-one] | 15.0
4 | CN1CC[C@]23CCCC[C@H]2[C@H]1Cc1ccc(O)cc13 [Levorphanol] | 1.8
5 | CCC(=O)C(CC(C)N(C)C)(c1ccccc1)c1ccccc1 (stereo not shown) [Methadone] | 9.0
6 | COc1ccc2c3c1OC1C(=O)CC[C@@]4(O)[C@@H](C2)N(C)CC[C@]314 (stereo partly shown) [Oxycodone, 4,5-epoxy-14-hydroxy-3-methoxy-17-methylmorphinan-6-one] | 13.5
7 | Meperidine | 135.0
